Reference: the OPERA property sets (Mansouri et al. 2018)

logP | Compound
3.3 | CCN(CC)C(=O)OCCc1c[nH]c2ccccc12
2.6 | CC(Cc1ccccc1)OC(=O)N(C)C (stereo not drawn)
3.6 | CCC(CC)COC(=O)N(CC)CC
1.38 | CC(C)OC(=O)N(C)C
3.2 | CCN(CC)C(=O)OCCc1ccccc1
2.93 | CN(C)C(=O)OCCCc1ccccc1
2.36 | CCN(CC)C(=O)OCCCc1ccccn1
2.87 | CCC(CC)COC(=O)N(C)C
1.44 | CN(C)C(=O)OCCCc1cccnc1
2.93 | CCN(CC)C(=O)OCc1ccccc1
2.4 | CN(C)C(=O)OCCc1ccccc1
2.54 | CN(C)C(=O)OCCc1c[nH]c2ccccc12
2.82 | CCN(CC)C(=O)OCC(C)C

Compound | logP
NC(=O)OCCc1ccccc1 | 1.5
NC(=O)OCCc1c[nH]c2ccccc12 | 1.69
NC(=O)OCCCc1ccccc1 | 1.96
CNC(=O)OCc1ccccc1 | 1.68
NC(=O)OCCCc1cccnc1 | 0.46
